For assay [1], the system named is vomeronasal sensory neurons (VSNs). Nature of the assay: VNO whole-mount en face confocal Ca2+ imaging of VSN dendritic knobs (Fig. 4, 5). The assay is classed as cell-based, mouse. Further details: key to Ca2+ response of f-MKKFRW-responsive VSN knobs / Fpeak: normalised to knob resting fluorescence F0 before stimulation. The note with it: for Fpeak / Ca2+ response of f-MKKFRW-responsive VSN knobs: Fig. 4h; for Fpeak: mean of individual knobs, n = 103 f-MKKFRW, 21 f-MKKFRWVVL, 68 MKKFRW, 26 f-MGFFIS, 63 PUM; for Ca2+ responses in VSNs, in words: VNE of adult B6 mice, f-MKKFRW 1 µM; for Ca2+ response of f-MKKFRW-responsive VSN knobs: adult B6 mice, mean ± s.d., N = 103 (f-MKKFRW), 21 (f-MKKFRWVVL), 68 (MKKFRW), 26 (f-MGFFIS), 63 (PUM). An excerpt: Mice (6–20 week old, either sex) were euthanized by CO2 inhalation according to institutional guidelines. After decapitation, the skin was removed from the skull, the mandible was cut off and the cranium was opened by a sagittal cut, 1–2-mm right-lateral in parallel to the midline. The palate and the right incisor were removed and the hemisected skull was mounted in low-melting agarose (4%). The bony capsule of the VNO was opened with fine forceps and the nonsensory epithelium was stripped off. Tissue and cell debris were gently washed off, and the en face preparation was superfused with physiological S1 solution (120 mM NaCl, 25 mM NaHCO3, 5 mM KCl, 1 mM MgSO4, 1 mM CaCl2, 10 mM glucose, 5 mM BES, pH 7.3) saturated with carbogen (95% O2, 5% CO2).
Loading of the VNE with Rhod-2/AM (5–15 µM, 1 h) was performed in S1 solution under carbogen atmosphere at RT. Images were taken with an upright confocal laser scanning microscope (Leica TCS SP5 II, 20x water immersion objective HCX APO L20x/1.0w) equipped with Ar and He/Ne lasers. GFP was excited at 488 nm, Venus at 514 nm and Rhod-2 at 543 nm. Emission was measured at 490–520 nm (GFP), 520–600 nm (Venus) and 560–680 nm (Rhod-2). To minimise interference between Venus and Rhod-2 fluorescence, images were taken sequentially (sample interval per image, 3–4 s). Peptide stimuli were applied to the VNE surface with a local perfusion system which, when positioned close to the anterior end of the VNO, produced a continuous solution stream from rostral to caudal along the VNO axis. Data analysis was performed with the open source software ImageJ (NIH). Ca^2+ responses of individual dendritic knobs were normalised to the knob resting fluorescence level obtained before stimulation (ratio Fx/F0, Fx = actual fluorescence; F0 = mean fluorescence of 3–5 images before ligand application). Mapping was performed by superimposing Ca^2+ peak images onto images showing intrinsic fluorescence for specific markers.
Predator urine mix was composed of urine from mountain lion, coyote, bobcat, fox and marten (at equal volume ratios), purchased from Predatorpee (USA) and Kieferle (Germany). The fMet peptides were as described above. Stimuli were applied in S2 solution (140 mM NaCl, 5 mM KCl, 10 mM HEPES, 1 mM CaCl2, 1 mM MgCl2, 10 mM glucose, pH 7.3 with NaOH).

In another assay the test system is male mice. Description: Behavioural avoidance test, FEU vs. FEU supplemented with peptide (Fig. 8, Supplementary Fig. 4). The assay is classed as in vivo, mouse. The note with it: for avoidance index: mean ± s.e.m.; for Preference (%): group mean value, FEU vs FEU supplemented with 100 µM peptide. How it is done:
These assays were adapted from behavioural procedures described previously[14],[60]. We tested avoidance by giving adult male mice (8–14 week old) of various genotypes a choice to freely investigate two types of chemical stimuli: FEU vs. FEU supplemented with a peptide. Mice were sexually naïve and not exposed to the test stimuli prior to the testing day. Mice were habituated for three days (40 min each day) to clean filter papers (2.5 cm diameter), each deposited in a sterile plastic culture dish and placed in opposite corners of the test cage (30 × 12 cm). After the third habituation period, the test subject was transferred into a new cage containing fresh filter papers/dishes with either of the two test stimuli. One filter paper was impregnated with 45 µl of fresh urine pooled from two sexually naïve female B6 mice (8–16 weeks old) in oestrus (FEU, female oestrous urine) and 5 µl physiological solution containing (in mM): NaCl, 130; KCl, 5; Na-Hepes, 10; CaCl2, 2; glucose, 10; pH = 7.4. For testing the effects of specific peptides, the second filter paper was impregnated with FEU supplemented with a given peptide (100 or 50 µM final concentration, dissolved in physiological solution). Direct physical contact was allowed. Behaviour was recorded for 10 min from the top of the cage. Mice were exposed only once to a given peptide solution, and were exposed to only one peptide stimulus per day. Stimuli were presented in randomised order. […] This investigative behaviour was quantified as the time spent in close contact with each filter paper, scored manually by an observer blind to the experimental conditions using Behavioural Observation Research Interactive Software (BORIS)[85]. Contact time was measured as the time during which the nose crossed the border of a petri dish containing impregnated filter paper. An avoidance index was calculated as (TP — aTU)/(aTP + aTU), with TP as the time an individual mouse investigated a FEU-peptide mixture, aTP as the average time of all tested mice investigating this stimulus and aTU as the average time of all mice investigating FEU without added peptide. Negative values represent avoidance and positive values represent attraction. For analysing investigation of sick conspecifics, B6 mice were injected either with LPS or PBS as described above. In total, 4 h post injection, these mice were anaesthetised with 165 mg/kg ketamine (Pharmacia GmbH, Berlin, Germany) and 11 mg/kg xylazine (Bayer Health Care, Leverkusen, Germany) and then used in behavioural tests.

Where [2] appears, read: 100 µM, B6 mice (f-MKKFRW also ΔFpr3-lacZ+/+, cGαo+/−, Trpc2+/−).
Setting [3] is: B6, 100 µM in FEU, n = 10-11, negative = avoidance.
Setting [4] is: Fig. 8c, individual values, B6 mice.
Setting [5] is: Fig. 8c, mean, B6 mice, n = 11 f-MKKFRW, 11 MKKFRW, 10 f-MGFFIS, 10 f-MEQQNK, FEU control -0.002.

“And” between values parts separate entries of the source, which are not always exact repeats. Equal values may be shown once. Peptide text beside a SMILES is read from it. * marks the point of attachment. For = O=C*

Turning to `CSCC[C@H](NC=O)C(=O)N[C@@H](CCCCN)C(=O)N[C@@H](CCCCN)C(=O)N[C@@H](Cc1ccccc1)C(=O)N[C@@H](CCCNC(=N)N)C(=O)N[C@@H](Cc1c[nH]c2ccccc12)C(=O)O` [f-MKKFRW] (For-MKKFRW-OH), the “fraction of knobs responding” value in assay [1] (1 µM, VNE, B6 mice) is ~ 0.15%. The “Ca2+ responses in Venus+ (B2m) vs GFP+ (NP2) knobs, in words” value in assay [1] (1 µM, heterozygous NP2∆ or B2m-Venus mice, Fig. 5g, h) was “Responses occurred in Venus+ but not in GFP+ knobs”. The compound also came in with a Fpeak in assay [1] of 0.71. In addition, the “Ca2+ responses in VSNs, in words” value in assay [1] is “robust, transient Ca^2+ elevations in a small subset of VSNs”. For the same compound, the “Ca2+ response of f-MKKFRW-responsive VSN knobs” value in assay [1] stood at 0.71 ± 0.44. Also, the “detection threshold for evoked Ca2+ responses in VSNs” value in assay [1] (native VSNs of adult B6 mice, Rhod-2/AM, Fig. 4f) was at most 0.1 µM. Besides, the “avoidance, in words” value in the assay on male mice (50 µM, B6 mice) was “mice were still capable of displaying avoidance”; with male mice (setting [2]), “robust avoidance”; with male mice (100 µM, ΔFpr3-lacZ −/−, cGαo −/− and Trpc2 −/− mice) it was “absent”. For the same compound, the avoidance index is reported as -0.34 ± 0.06 in the assay on male mice (B6, 50 µM in FEU, N = 9, Supplementary Fig. 4d); −0.34 ± 0.03 in the assay on male mice (setting [3]); −0.41 ± 0.06 with male mice (Trpc2 +/−, 100 µM in FEU); −0.02 ± 0.10 with male mice (Trpc2 −/−, 100 µM in FEU); −0.45 ± 0.04 in the assay on male mice (cGαo +/−, 100 µM in FEU); 0.10 ± 0.11 in the assay on male mice (cGαo −/−, 100 µM in FEU, n = 13). In addition, the avoidance index in the assay on male mice (∆Fpr3-lacZ +/+, 100 µM in FEU) is on record as −0.55 ± 0.04; in the assay on male mice (∆Fpr3-lacZ −/−, 50 µM in FEU, N = 5, Supplementary Fig. 4d) it was 0.005 ± 0.08; in the assay with male mice (∆Fpr3-lacZ −/−, 100 µM in FEU, n = 12) it was 0.22 ± 0.10. Further, the “Preference Index” value in the assay with male mice (setting [4]) is -0.2596 and -0.3493 and -0.4593 and -0.377 (2×) and -0.1335 and -0.375 and -0.3656 and -0.2037 and -0.2877 and -0.531; with male mice (setting [5]), -0.34; with male mice (Fig. 8e, individual values, cGao +/-), -0.2157 and -0.2715 and -0.2275 and -0.592 and -0.6063 and -0.5538 and -0.3716 and -0.4364 and -0.4748 and -0.4802 and -0.5951 and -0.504 and -0.5805; in the assay on male mice (Fig. 8e, individual values, cGao -/-), 0.466 and 0.06846 and 0.3027 and 0.3207 and 0.1056 and -0.3803 and 0.00671 and 0.2965 and 0.7963 and 0.4351 and -0.3658 and -0.3561 and -0.3465; in the assay with male mice (Fig. 8e, mean, cGao +/-, n = 13 f-MKKFRW, 12 MKKFRW, FEU control -0.0358) it was -0.45; in the assay with male mice (Fig. 8e, mean, cGao -/-, n = 13, FEU control 0.15), 0.10. For the same compound, the “Preference Index” value with male mice (Fig. 8f, individual values, Trpc2 +/-) is -0.1378 and -0.4957 and -0.5951 and -0.4313 and -0.5692 and -0.4357 and -0.03894 and -0.2863 and -0.157 and -0.6487 and -0.5152 and -0.5504; in the assay on male mice (Fig. 8f, individual values, Trpc2 -/-), -0.1066 and -0.3083 and -0.1978 and -0.152 and 0.6895 and 0.2354 and -0.08494 and 0.4331 and -0.3499 and -0.2993 and -0.07691; in the assay on male mice (Fig. 8f, mean, Trpc2 +/-, n = 12 f-MKKFRW, 9 MKKFRW, FEU control -0.0531), -0.41; in the assay with male mice (Fig. 8f, mean, Trpc2 -/-, n = 11 f-MKKFRW, 8 MKKFRW, FEU control -0.10) it was -0.02; with male mice (Fig. 8d, individual values, ∆Fpr3-lacZ +/+), -0.634 and -0.7071 and -0.2684 and -0.569 and -0.6199 and -0.495 and -0.4793 and -0.629 and -0.5062; in the assay with male mice (Fig. 8d, individual values, ∆Fpr3-lacZ -/-) it was -0.00973 and -0.216 and 0.248 and 0.6807 and 0.8928 and 0.2328 and 0.2493 and -0.01291 and 0.00975 and -0.2244 and 0.2479 and 0.4981. For the same compound, the “Preference Index” value in the assay with male mice (Fig. 8d, mean, ∆Fpr3-lacZ +/+, n = 9 f-MKKFRW, 6 MKKFRW, FEU control -0.06) is -0.55; in the assay on male mice (Fig. 8d, mean, ∆Fpr3-lacZ -/-, n = 12, FEU control 0.19), 0.22. For the same compound, the “Preference (%)” value was -25.7155% in the assay on male mice (Fig. 8g, ∆Fpr3-lacZ +/+ males, FEU/FEU control -5.85844); 9.5733% in the assay on male mice (Fig. 8g, ∆Fpr3-lacZ -/- males, FEU/FEU control 2.58474); -20.0023% with male mice (Fig. 8h, Trpc2 +/- males, FEU/FEU control 0.100694); -1.896% with male mice (Fig. 8h, Trpc2 -/- males, FEU/FEU control -3.21189).
In the case of “f-MGFFIS [bacterial signal peptide fragment]”, in assay [1], the Fpeak was determined as 0.00; the “Ca2+ responses in VSNs, in words” value was “failed to evoke Ca^2+ responses in VSNs”; the “Ca2+ response of f-MKKFRW-responsive VSN knobs” value was 0.00 ± 0.00. Besides, the “avoidance, in words” value with male mice (setting [2]) is recorded as “failed to elicit avoidance”. The avoidance index in the assay with male mice (setting [3]) is given as 0.13 ± 0.09. The “Preference Index” value in the assay with male mice (setting [4]) is -0.07414 and 0.6081 and -0.2699 and 0.01401 and 0.4619 and -0.1746 and 0.304 and 0.1043 and 0.0419 and 0.2857. The “Preference Index” value in the assay with male mice (setting [5]) was 0.13.

Source of the values: publication PMC6814738, “Bacterial MgrB peptide activates chemoreceptor Fpr3 in mouse accessory olfactory system and drives avoidance behaviour” (Nature Communications, 2019).
